Experimental data from article PMC3603284 (Therapeutic drug monitoring, 2013).

Experiment: Week 2 plasma trough protease inhibitor concentration
Set-up: species or system human
Settings: in vivo

association of SLCO1B1 521T→C with week 2 trough concentration	week 2 trough measures below the assay limit of quantification (200 ng/ml) (human, 2 weeks)	decrease in the mean trough concentration per C allele (human, 2 weeks)	SMILES
no significant association			CC(C)(C)NC(=O)[C@@H]1C[C@@H]2CCCC[C@@H]2CN1C[C@@H](O)[C@H](Cc1ccccc1)NC(=O)[C@H](CC(N)=O)NC(=O)c1ccc2ccccc2n1 [saquinavir]
no significant association	86%		CC(C)c1nc(CN(C)C(=O)N[C@H](C(=O)N[C@@H](Cc2ccccc2)C[C@H](O)[C@H](Cc2ccccc2)NC(=O)OCc2cncs2)C(C)C)cs1 [ritonavir]
		35%	CC(C)CN(C[C@@H](O)[C@H](Cc1ccccc1)NC(=O)O[C@H]1CCOC1)S(=O)(=O)c1ccc(N)cc1 [amprenavir]
